Data taken from ChEMBL document CHEMBL5291721, “A preclinical secondary pharmacology resource illuminates target-adverse drug reaction associations of marketed drugs” (Nat Commun, 2023).

Legend:
[1] = target: T1, Gastrin/cholecystokinin type B receptor (Homo sapiens, UniProt P32239)
T1 sequence (P32239 whole entry): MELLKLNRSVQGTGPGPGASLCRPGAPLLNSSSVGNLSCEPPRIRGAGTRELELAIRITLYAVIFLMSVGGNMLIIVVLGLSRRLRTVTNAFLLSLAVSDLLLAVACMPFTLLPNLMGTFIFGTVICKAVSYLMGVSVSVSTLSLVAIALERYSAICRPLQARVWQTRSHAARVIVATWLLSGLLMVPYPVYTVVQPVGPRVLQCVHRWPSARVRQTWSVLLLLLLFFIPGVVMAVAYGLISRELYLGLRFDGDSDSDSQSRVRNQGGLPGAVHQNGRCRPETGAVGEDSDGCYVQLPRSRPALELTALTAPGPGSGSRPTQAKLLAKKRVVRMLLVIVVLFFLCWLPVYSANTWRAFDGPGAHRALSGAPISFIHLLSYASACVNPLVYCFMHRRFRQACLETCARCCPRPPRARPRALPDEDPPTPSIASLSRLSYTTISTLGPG

Progesterone receptor = target: T2, Progesterone receptor (Homo sapiens, UniProt P06401); format: functional
T2 sequence (P06401 whole entry): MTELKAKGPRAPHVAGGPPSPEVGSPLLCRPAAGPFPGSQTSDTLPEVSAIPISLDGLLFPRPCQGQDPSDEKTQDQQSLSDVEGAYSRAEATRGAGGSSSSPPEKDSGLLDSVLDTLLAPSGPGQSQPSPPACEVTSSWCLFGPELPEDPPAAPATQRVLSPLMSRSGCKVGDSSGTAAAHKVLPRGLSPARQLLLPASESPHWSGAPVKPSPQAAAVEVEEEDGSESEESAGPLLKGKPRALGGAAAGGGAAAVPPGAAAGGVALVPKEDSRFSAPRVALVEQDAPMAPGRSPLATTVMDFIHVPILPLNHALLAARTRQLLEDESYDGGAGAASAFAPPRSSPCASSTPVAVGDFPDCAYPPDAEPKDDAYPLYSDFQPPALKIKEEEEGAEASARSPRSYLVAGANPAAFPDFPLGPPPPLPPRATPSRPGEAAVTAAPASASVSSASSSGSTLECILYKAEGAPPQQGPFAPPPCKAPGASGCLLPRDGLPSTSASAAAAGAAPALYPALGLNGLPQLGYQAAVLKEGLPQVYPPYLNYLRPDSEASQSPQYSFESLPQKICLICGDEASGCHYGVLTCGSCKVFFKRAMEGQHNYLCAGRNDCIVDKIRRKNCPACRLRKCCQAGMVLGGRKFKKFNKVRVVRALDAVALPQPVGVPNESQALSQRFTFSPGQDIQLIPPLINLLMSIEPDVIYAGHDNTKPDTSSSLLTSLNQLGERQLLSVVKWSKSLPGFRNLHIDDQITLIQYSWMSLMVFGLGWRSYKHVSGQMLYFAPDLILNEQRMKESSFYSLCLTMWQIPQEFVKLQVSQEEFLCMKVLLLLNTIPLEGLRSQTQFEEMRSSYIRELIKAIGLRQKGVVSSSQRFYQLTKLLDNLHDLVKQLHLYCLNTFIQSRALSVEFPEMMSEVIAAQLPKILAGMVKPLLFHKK

[2] = target: T3, Type-1 angiotensin II receptor (Homo sapiens, UniProt P30556)
T3 sequence (P30556 whole entry): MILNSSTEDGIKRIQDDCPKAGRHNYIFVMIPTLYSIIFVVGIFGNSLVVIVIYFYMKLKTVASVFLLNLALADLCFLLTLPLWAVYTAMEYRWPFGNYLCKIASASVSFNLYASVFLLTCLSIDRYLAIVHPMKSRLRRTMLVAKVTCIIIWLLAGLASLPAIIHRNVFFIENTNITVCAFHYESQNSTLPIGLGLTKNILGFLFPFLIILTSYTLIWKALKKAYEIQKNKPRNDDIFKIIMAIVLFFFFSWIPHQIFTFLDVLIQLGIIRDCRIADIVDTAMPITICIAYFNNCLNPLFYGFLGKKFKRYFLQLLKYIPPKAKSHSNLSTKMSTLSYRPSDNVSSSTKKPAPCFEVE

[3] = target: Sodium-dependent dopamine transporter (Homo sapiens, UniProt Q01959)
Melanocortin receptor 3 = Melanocortin receptor 3 (Homo sapiens, UniProt P41968)
Glucocorticoid receptor = target: T4, Glucocorticoid receptor (Homo sapiens, UniProt P04150)
T4 sequence (P04150 whole entry): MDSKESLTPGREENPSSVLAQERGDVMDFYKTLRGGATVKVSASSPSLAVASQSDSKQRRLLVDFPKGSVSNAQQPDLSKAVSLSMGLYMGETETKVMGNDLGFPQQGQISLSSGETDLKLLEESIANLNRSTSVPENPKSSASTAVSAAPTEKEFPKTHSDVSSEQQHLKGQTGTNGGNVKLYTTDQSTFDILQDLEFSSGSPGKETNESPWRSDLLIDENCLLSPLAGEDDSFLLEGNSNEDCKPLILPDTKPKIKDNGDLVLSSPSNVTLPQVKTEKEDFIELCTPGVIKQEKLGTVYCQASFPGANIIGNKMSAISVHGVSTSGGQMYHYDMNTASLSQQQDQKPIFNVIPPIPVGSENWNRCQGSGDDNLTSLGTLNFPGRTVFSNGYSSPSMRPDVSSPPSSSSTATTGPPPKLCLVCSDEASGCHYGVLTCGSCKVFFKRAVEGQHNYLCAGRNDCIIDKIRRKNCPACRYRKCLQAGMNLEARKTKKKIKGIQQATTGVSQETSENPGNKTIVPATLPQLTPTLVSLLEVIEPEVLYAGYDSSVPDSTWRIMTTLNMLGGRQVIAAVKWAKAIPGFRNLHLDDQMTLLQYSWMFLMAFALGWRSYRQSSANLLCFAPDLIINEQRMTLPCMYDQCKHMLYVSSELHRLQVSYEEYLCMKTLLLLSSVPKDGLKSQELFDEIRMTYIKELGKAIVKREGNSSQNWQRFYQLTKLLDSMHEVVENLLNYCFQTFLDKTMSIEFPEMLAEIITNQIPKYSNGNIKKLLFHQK
Further: assay procedure not described here.

Chain of Melanocortin receptor 3 (P41968 whole entry): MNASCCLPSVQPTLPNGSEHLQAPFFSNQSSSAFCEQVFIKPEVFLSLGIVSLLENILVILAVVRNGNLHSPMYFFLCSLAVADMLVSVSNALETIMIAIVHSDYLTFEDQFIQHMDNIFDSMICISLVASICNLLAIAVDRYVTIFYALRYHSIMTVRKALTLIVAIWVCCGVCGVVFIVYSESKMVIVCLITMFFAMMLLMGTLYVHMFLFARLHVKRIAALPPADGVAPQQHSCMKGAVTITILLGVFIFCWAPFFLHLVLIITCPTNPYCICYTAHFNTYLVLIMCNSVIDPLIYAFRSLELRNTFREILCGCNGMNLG
Chain of Sodium-dependent dopamine transporter (Q01959 whole entry): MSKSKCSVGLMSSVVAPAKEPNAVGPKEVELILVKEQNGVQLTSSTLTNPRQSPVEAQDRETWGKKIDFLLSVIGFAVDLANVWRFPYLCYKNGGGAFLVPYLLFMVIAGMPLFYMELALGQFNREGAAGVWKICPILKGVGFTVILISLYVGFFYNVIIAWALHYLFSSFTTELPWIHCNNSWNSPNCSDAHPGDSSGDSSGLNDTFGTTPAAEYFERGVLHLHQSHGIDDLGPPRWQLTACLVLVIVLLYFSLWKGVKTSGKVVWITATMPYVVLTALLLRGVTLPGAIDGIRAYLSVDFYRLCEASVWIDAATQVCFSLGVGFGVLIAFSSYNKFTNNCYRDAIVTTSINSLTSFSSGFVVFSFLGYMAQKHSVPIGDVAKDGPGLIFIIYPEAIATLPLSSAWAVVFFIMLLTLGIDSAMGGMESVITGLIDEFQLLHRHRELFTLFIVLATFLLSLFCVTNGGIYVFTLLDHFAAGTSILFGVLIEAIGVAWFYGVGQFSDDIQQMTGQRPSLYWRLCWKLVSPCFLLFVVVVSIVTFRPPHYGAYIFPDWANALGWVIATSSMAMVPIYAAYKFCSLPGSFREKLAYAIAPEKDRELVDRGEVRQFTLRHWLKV

Row | Compound | AC50 [1] | AC50 (Progesterone receptor) | AC50 [2] | AC50 [3] | AC50 (Melanocortin receptor 3) | AC50 (Glucocorticoid receptor)
1 | CC(=O)OCC(=O)[C@@]1(O)CC[C@H]2[C@@H]3CCC4=CC(=O)CC[C@]4(C)[C@@]3(F)[C@@H](O)C[C@@]21C [FLUDROCORTISONE ACETATE] | > 30 µM | 8.2 µM | > 30 µM | > 30 µM | > 30 µM | 
2 | N=C(N)NC(=O)Cc1c(Cl)cccc1Cl [GUANFACINE] | > 30 µM |  | > 30 µM | > 30 µM | > 30 µM | > 30 µM
3 | CCN(CC)CC(=O)Nc1c(C)cccc1C [LIDOCAINE] | > 30 µM |  | > 10 µM |  | 23 µM | > 30 µM
4 | CC(=O)N1CCN(c2ccc(OCC3COC(Cn4ccnc4)(c4ccc(Cl)cc4Cl)O3)cc2)CC1 (stereo not drawn) [KETOCONAZOLE] |  | > 10 µM | > 10 µM | > 30 µM | > 10 µM | > 10 µM
5 | CN1CCC(=C2c3ccccc3CC(=O)c3sccc32)CC1 [KETOTIFEN] |  | > 10 µM | > 10 µM | > 10 µM | > 10 µM | > 10 µM
6 | CC(=O)[C@@]1(O)CC[C@H]2[C@@H]3C[C@H](C)C4=CC(=O)C=C[C@]4(C)[C@@]3(F)[C@@H](O)C[C@@]21C [FLUOROMETHOLONE] |  | 0.053 µM | > 10 µM | > 10 µM | > 10 µM | 0.004 µM
7 | CNCCc1ccccn1 [BETAHISTINE] | > 30 µM | > 30 µM | > 30 µM | > 30 µM | > 30 µM | > 30 µM
8 | CC1CC(OC(=O)C(O)c2ccccc2)CC(C)(C)C1 (stereo not drawn) [CYCLANDELATE] |  | > 30 µM | > 10 µM | > 30 µM | > 10 µM | 
9 | O=C1CN=C(c2ccccc2Cl)c2cc([N+](=O)[O-])ccc2N1 [CLONAZEPAM] | > 30 µM |  | > 30 µM | > 10 µM | > 30 µM | > 30 µM
10 | CN(Cc1ccc(C(C)(C)C)cc1)Cc1cccc2ccccc12 [BUTENAFINE] |  | > 30 µM | > 10 µM | > 10 µM | > 10 µM | > 30 µM
11 | COc1nc(C)nc(Cl)c1N=C1NCCN1 [MOXONIDINE] | > 30 µM | > 30 µM | > 30 µM | > 30 µM | > 30 µM | > 30 µM
12 | CC(C)(C)NCC(O)COc1cccc2c1CC(O)C(O)C2 (stereo not drawn) [NADOLOL] |  | > 10 µM | > 10 µM | > 10 µM | > 10 µM | > 10 µM
13 | OCCN(CCO)c1nc(N2CCCCC2)c2nc(N(CCO)CCO)nc(N3CCCCC3)c2n1 [DIPYRIDAMOLE] | > 30 µM |  | > 30 µM | > 30 µM | > 30 µM | 
14 | CCc1ccc(C(=O)C(C)CN2CCCCC2)cc1 (stereo not drawn) [EPERISONE] | > 30 µM | > 30 µM | > 30 µM | > 30 µM | > 30 µM | > 30 µM
15 | Cc1nnc2n1-c1ccc(Cl)cc1C(c1ccccc1)=NC2 [ALPRAZOLAM] | > 30 µM |  | > 30 µM | > 10 µM | > 30 µM | > 30 µM
16 | CCC1(C)CC(=O)NC1=O (stereo not drawn) [ETHOSUXIMIDE] |  | > 10 µM | > 10 µM | > 10 µM | > 10 µM | > 10 µM
17 | CCOC(=O)C1=C(C)NC(C)=C(C(=O)OC)C1c1cccc(Cl)c1Cl (stereo not drawn) [FELODIPINE] | > 30 µM |  | 55.3 µM | 13.3 µM | > 30 µM | 9.94 µM
18 | TEPRENONE | > 30 µM |  | 8.72 µM | > 30 µM | > 30 µM | > 30 µM
19 | SITOSTEROLS | > 10 µM |  | > 30 µM | > 30 µM | > 30 µM | > 30 µM
20 | CCCCOC(=O)c1ccc(N)cc1 [BUTAMBEN] | > 30 µM | > 30 µM | > 30 µM | > 30 µM | > 30 µM | > 30 µM
21 | Cc1cccc(Nc2ccncc2S(=O)(=O)NC(=O)NC(C)C)c1 [TORSEMIDE] | > 30 µM | > 10 µM | > 10 µM | > 10 µM | > 30 µM | > 10 µM
22 | CCN(C(C)=O)c1cccc(-c2ccnc3c(C#N)cnn23)c1 [ZALEPLON] | > 30 µM | > 30 µM | > 30 µM | > 30 µM | > 30 µM | 
23 | CN1C2CCCC1CC(NC(=O)c1nn(C)c3ccccc13)C2 (stereo not drawn) [GRANISETRON] | > 30 µM |  | > 30 µM | > 10 µM | > 30 µM | 
24 | Nc1cc(N2CCCCC2)nc(N)[n+]1[O-] [MINOXIDIL] | > 30 µM |  | > 30 µM | > 30 µM | > 30 µM | > 30 µM
25 | O=C(O)CCCC[C@@H]1SC[C@@H]2NC(=O)N[C@@H]21 [BIOTIN] |  |  | > 10 µM | > 10 µM | > 10 µM | > 10 µM
26 | CC(NC(C)(C)C)C(=O)c1cccc(Cl)c1 (stereo not drawn) [BUPROPION] | > 30 µM |  | > 30 µM |  | > 30 µM | > 30 µM
27 | Nc1ccc(S(=O)(=O)Nc2ncccn2)cc1 [SULFADIAZINE] |  | > 10 µM | > 10 µM | > 10 µM | > 10 µM | 
28 | CC1=C(CC(=O)O)c2cc(F)ccc2/C1=C\c1ccc([S+](C)[O-])cc1 (stereo not drawn) | > 30 µM |  | > 30 µM | > 30 µM | > 30 µM | > 30 µM
29 | CC(C)CN(C[C@@H](O)[C@H](Cc1ccccc1)NC(=O)O[C@H]1CCOC1)S(=O)(=O)c1ccc(N)cc1 | > 30 µM | > 10 µM | > 10 µM | > 10 µM | > 30 µM | > 10 µM
30 | CC1Cc2ccccc2N1NC(=O)c1ccc(Cl)c(S(N)(=O)=O)c1 (stereo not drawn) [INDAPAMIDE] | > 30 µM |  | > 30 µM | > 30 µM | > 30 µM | 
